According to article PMC4858918, “Improving the N-terminal diversity of sansanmycin through mutasynthesis” (Microbial Cell Factories, 2016):
In brackets after ≈: the same amount, converted by molar mass.

Experiments:
[1] = Stability determination in KH2PO4 buffer; type: physicochemical; conditions: chemical stability, 0.05 M KH2PO4 buffer pH 6.0, room temperature (25 °C), HPLC peak areas, three parallel repeats
Method: As it is easier to get enough amount of sansanmycin MX-2 and MX-4, the stability test of sansanmycin A, MX-2 and MX-4 was performed in KH2PO4 buffer (pH 6.0) at room temperature.
Fig. 8 Stability of sansanmycin A, MX-2 and MX-4. a HPLC analysis of sansanmycin A at indicated days in KH2PO4 buffer (pH 6.0) at room temperature. b The changes of the level of sansanmycin A, MX-2 and MX-4 over time. All samples were analyzed by HPLC and quantified according to the areas of peaks. blue line, sansanmycin MX-2; red line, sansanmycin MX-4; green line, sansanmycin A
To dissect the stability of sansanmycin A and other sansanmycin analogues, compounds were dissolved in 0.05 M KH2PO4 buffer (pH adjusted to 6.0 with NaOH). All samples were incubated at 25 °C for 9 days. Each sample has three parallel repeats. Residual analogues were analyzed by HPLC and quantified by the peak areas.

M. tuberculosis H37Rv = experiment: MIC, microplate Alamar blue assay (MABA); type: cell-based; conditions: Mycobacterium tuberculosis, standard and susceptible strain
E. coli ΔtolC mutant = experiment: MIC, microdilution test (CLSI); conditions: Mueller-Hinton broth, 10^6 cells/ml, 37 °C, 24 h, visual observation, triplicate
P. aeruginosa 11 = experiment: MIC, microdilution test (CLSI); conditions: Pseudomonas aeruginosa, 11, 24 h, read-out: MIC P. aeruginosa 11
[2] = system: B. subtilis CMCC (B) 63501; experiment: MIC, microdilution test (CLSI); conditions: Bacillus subtilis, 24 h, read-out: MIC B. subtilis CMCC (B) 63501

**Q.** With CSCC[C@H](NC(=O)N[C@@H](Cc1c[nH]c2ccccc12)C(=O)O)C(=O)NC(C(=O)N/C=C1/CC(O)C(n2ccc(=O)[nH]c2=O)O1)C(C)N(C)C(=O)[C@@H](N)Cc1cccc(O)c1 (some centres unmarked) [A, sansanmycin A] as the molecule, how does the “compound remained after 6 days of incubation” value [1] read?
**A.** Its value is “less than 10%”.

**Q.** Which MIC (M. tuberculosis H37Rv) does the source give for CC[C@@H](CO)NCCN[C@@H](CC)CO [Ethambutol] here?
**A.** Its MIC is 0.5 µg/mL (≈ 2.45 µM).

**Q.** With NNC(=O)c1ccncc1 [Isoniazid] as the molecule, how does the MIC (M. tuberculosis H37Rv) read?
**A.** Its MIC is 0.125 µg/mL (≈ 0.911 µM).

**Q.** Which MIC (M. tuberculosis H37Rv) does the source give for CO[C@H]1/C=C/O[C@@]2(C)Oc3c(C)c(O)c4c(O)c(c(/C=N/N5CCN(C)CC5)c(O)c4c3C2=O)NC(=O)/C(C)=C\C=C\[C@H](C)[C@H](O)[C@@H](C)[C@@H](O)[C@@H](C)[C@H](OC(C)=O)[C@@H]1C [Rifampicin] here?
**A.** The MIC was under 0.06 µg/mL.

**Q.** For [H]/N=C(/N)N[C@H]1[C@H](O)[C@@H](O)[C@H](O[C@@H]2O[C@@H](C)[C@](O)(C=O)[C@H]2O[C@@H]2O[C@@H](CO)[C@H](O)[C@@H](O)[C@@H]2NC)[C@@H](N/C(N)=N\[H])[C@@H]1O [Streptomycin], which MIC (M. tuberculosis H37Rv) is on record?
**A.** The MIC was 0.25 µg/mL (≈ 0.43 µM).

**Q.** What about the “MIC E. coli ΔtolC” value (E. coli ΔtolC mutant) of the same molecule?
**A.** The value was 16 µg/mL (≈ 27.5 µM).

**Q.** What about the MIC (P. aeruginosa 11) of the same molecule?
**A.** The MIC was 4 µg/mL (≈ 6.88 µM).

**Q.** What about the MIC [2] of the same molecule?
**A.** The MIC was 2 µg/mL (≈ 3.44 µM).
